Source: US7179825B2, “Retinoic acid mimetic anilides” (Janssen Pharmaceutica N.V., priority 1997, dated 2007)

Assays:
[1] = tested on: metabolism of retinoic acid in human breast cancer cells; assay: Inhibition of retinoic acid (RA) metabolism (Example C.1); assay type: cell-based; conditions: MCF-7 human breast cancer cells, 3H-RA as substrate, concentration needed to reduce the amount of metabolites to 50% of the control
Procedure, shortened: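 Test compound (in 1% DMSO) added at several concentrations to MCF-7 cell suspensions fed ³H-RA, after RA induction of metabolism one day earlier. Scintillation counting of the separated polar metabolite fraction; IC50 = concentration giving 50% of control metabolite level.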

Ovariectomized rats = assay: Vaginal keratinization test on ovariectomized rats (Example C.2); assay type: in vivo; conditions: estradiol undecylate induced keratinization, per os once daily on days 1-3, active dose = 50% of rats show complete suppression; for minimal effective dose: Rattus norvegicus, po, read-out: LAD (lowest active dose)
Procedure, shortened: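 Value is the lowest oral dose (mg/kg) at which half of tested rats show complete suppression of estradiol undecylate-induced vaginal keratinization by histology. Ovariectomized rats received 100 μg/100 g estradiol undecylate s.c., then compound or PEG 200 vehicle p.o. daily for three days; sacrifice one day later.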

Structure (SMILES)	IC50 [1] [nM]	LAD (lowest active dose) (Ovariectomized rats) [mg/kg]	IC50 ([1]; MCF7) [nM]	minimal effective dose (Ovariectomized rats) [mg/kg]
CCOc1ccc(CC(=O)Nc2ccc(C(C(CC)CC)n3ccnc3)cc2)cc1Cl (racemic) [Compound 118]	2.24	2.50	–	–
CCC(CC)C(c1ccc(NC(=O)Cc2ccc(OCc3ccccn3)cc2)cc1)n1ccnc1 (racemic) [Compound 121]	0.914	>2.50	–	–
CCC(CC)C(c1ccc(NC(=O)Cc2cc(C)ccc2OC)cc1)n1ccnc1 (racemic) [Compound 122]	2.4	>2.50	–	–
CCC(CC)C(c1ccc(NC(=O)Cc2ccc(OC)c(C)c2)cc1)n1ccnc1 (racemic) [Compound 123]	0.0247	2.50	–	–
CCOc1ccc(CC(=O)Nc2ccc(C(C(CC)CC)n3ccnc3)cc2)cc1C (racemic) [Compound 125]	0.194	2.50	–	–
CCC(CC)C(c1ccc(NC(=O)Cc2ccc(OC)cc2OC)cc1)n1ccnc1 (racemic) [Compound 126]	< 0.01	2.50	–	–
C/C(=C\c1ccccc1)C(=O)Nc1ccc(C(C(C)C)n2cncn2)cc1 (racemic) [Compound 154, (±)-(E)-2-methyl-N-[4-[2-methyl-1-(1H-1,2,4-triazol-1-yl)propyl]phenyl]-3-phenyl-2-propenamide]	–	–	4.14	5
CC(C)C(c1ccc(NC(=O)/C=C/c2ccccc2)cc1)n1cncn1 (racemic) [Compound 155]	50.1	>10.00	–	–
CC(=Cc1cccc(Cl)c1)C(=O)Nc1ccc(C(C(C)C)n2cncn2)cc1 (racemic) [Compound 156]	31	>10.00	–	–
C/C(=C\c1ccc(F)cc1)C(=O)Nc1ccc(C(C(C)C)n2cncn2)cc1 (racemic) [Compound 157]	84.8	>10.00	–	–
CC(C)C(c1ccc(NC(=O)C(F)=Cc2ccccc2)cc1)n1cncn1 (racemic) [Compound 160]	86.5	10.00	–	–
CCC(=O)Nc1ccc(C(C(C)C)n2ccnc2)cc1 (racemic) [Compound 163]	2.36	20.00	–	–
CC(Cc1ccccc1)C(=O)Nc1ccc(C(C(C)C)n2ccnc2)cc1 (racemic) [Compound 164, (±)-N-[4-[1-(1H-imidazol-1-yl)-2-methylpropyl]phenyl]-α-methylbenzenepropanamide]	–	–	8.15	20
CC(C)C(c1ccc(NC(=O)c2ccccc2)cc1)n1ccnc1 (racemic) [Compound 166]	1.75	5.00	–	–
CC(C)C(c1ccc(NC(=O)c2cc3ccccc3o2)cc1)n1ccnc1 (racemic) [Compound 167]	4.16	10.00	–	–
CC(C)C(c1ccc(NC(=O)c2cc3ccccc3s2)cc1)n1ccnc1 (racemic) [Compound 168]	2.36	10.00	–	–
CC(C)C(c1ccc(NC(=O)c2ccco2)cc1)n1ccnc1 (racemic) [Compound 169]	0.531	10.00	–	–
CC(C)C(c1ccc(NC(=O)c2cnccn2)cc1)n1ccnc1 (racemic) [Compound 170]	12.2	10.00	–	–
CC(C)C(c1ccc(NC(=O)c2ccoc2)cc1)n1ccnc1 (racemic) [Compound 172]	3.41	10.00	–	–
CC(C)C(c1ccc(NC(=O)c2ccsc2)cc1)n1ccnc1 (racemic) [Compound 173]	5.17	10.00	–	–
CC(C)C(c1ccc(NC(=O)C2CCCCC2)cc1)n1ccnc1 (racemic) [Compound 174]	1.6	10.00	–	–

Structure (SMILES)	IC50 [1] [nM]	LAD (lowest active dose) (Ovariectomized rats) [mg/kg]	IC50 ([1]; MCF7) [nM]	minimal effective dose (Ovariectomized rats) [mg/kg]
C/C(C(=O)Nc1ccc(C(C(C)C)n2ccnc2)cc1)=C(/C)c1ccccc1 (racemic) [Compound 176]	18.7	>10.00	–	–
CC(C)C(c1ccc(NC(=O)c2ccc3ccccc3c2)cc1)n1ccnc1 (racemic) [Compound 179]	36.9	>10.00	–	–
CC(C)C(c1ccc(NC(=O)C2CCCO2)cc1)n1ccnc1 (racemic) [Compound 181]	14.1	10.00	–	–
CC(C)C(c1ccc(NC(=O)c2ccc3nnn(C)c3c2)cc1)n1ccnc1 (racemic) [Compound 184]	5.15	>10.00	–	–
CC(C)C(c1ccc(NC(=O)C2CCOC2)cc1)n1ccnc1 (racemic) [Compound 185]	39.7	10.00	–	–
CC(C)C(c1ccc(NC(=O)c2csc(-c3ccccc3)n2)cc1)n1ccnc1 (racemic) [Compound 186]	> 100	>10.00	–	–
CC(C)C(c1ccc(NC(=O)C(C)(c2ccccc2)c2ccccc2)cc1)n1ccnc1 (racemic) [Compound 189]	> 100	>10.00	–	–
CC(C)C(c1ccc(NC(=O)C2CCCC2)cc1)n1ccnc1 (racemic) [Compound 192]	3.34	>10.00	–	–
CC(C)C(c1ccc(NC(=O)C2CCCCC2)cc1)n1ccnc1 (racemic) [Compound 193]	12.1	>10.00	–	–
CC(C)C(c1ccc(NC(=O)c2ccncc2)cc1)n1ccnc1 (racemic) [Compound 194]	7.07	10.00	–	–
CC(C)C(c1ccc(NC(=O)c2cccnc2)cc1)n1ccnc1 (racemic) [Compound 196]	22.3	>10.00	–	–
CC(C)C(c1ccc(NC(=O)C2(C)CCCCC2)cc1)n1ccnc1 (racemic) [Compound 201]	3.58	>10.00	–	–
CC(C)C(c1ccc(NC(=O)C2CCCCC2C)cc1)n1ccnc1 (racemic) [Compound 202]	1.84	>10.00	–	–
CC(C)C(c1ccc(NC(=O)c2ccc3c(c2)CCC(=O)N3)cc1)n1ccnc1 (racemic) [Compound 205]	11.7	>10.00	–	–
C/C(C(=O)Nc1ccc(C(C(C)C)n2ccnc2)cc1)=C(/c1ccccc1)c1ccco1 (racemic) [Compound 207]	25.4	10.00	–	–
CC(C)C(c1ccc(NC(=O)c2ccccn2)cc1)n1ccnc1 (racemic) [Compound 208]	6.43	>10.00	–	–
CC(C)C(=O)Nc1ccc(C(C(C)C)n2ccnc2)cc1 (racemic) [Compound 209]	8.27	5.00	–	–
CC(C)C(c1ccc(NC(=O)CSCc2ccccc2)cc1)n1ccnc1 (racemic) [Compound 210]	29	20.00	–	–
CC(C)C(c1ccc(NC(=O)CNc2ccccc2)cc1)n1ccnc1 (racemic) [Compound 213]	2.07	20.00	–	–
CC(C)C(c1ccc(NC(=O)c2ccc3ccccc3n2)cc1)n1ccnc1 (racemic) [Compound 215]	36	20.00	–	–
CC(C)C(c1ccc(NC(=O)c2cnc3ccccc3n2)cc1)n1ccnc1 (racemic) [Compound 216]	11.7	20.00	–	–
